Key:
Experiment in all cases: relative viability (nuclei count vs DMSO), 5 days (fraction); higher = more cells survive
MK-8033 + Dasatinib = compound: Cn1cc(-c2cnc3ccc4ccc(CS(=O)(=O)NCc5ccccn5)cc4c(=O)c3c2)cn1 [MK-8033] + Cc1nc(Nc2ncc(C(=O)Nc3c(C)cccc3Cl)s2)cc(N2CCN(CCO)CC2)n1 [Dasatinib] (partner 0.075 µM)
Outline: (§1)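 Lung cancer cell lines in 1536-well plates were dosed by pin tool the day after seeding, either with one drug alone or with a fixed anchor-drug dose plus five library-drug doses (not always all listed) in √10 steps. After 5 days, cells were fixed and their nuclei stained in one step (final 0.05% Triton X-100, 1% formaldehyde, 1 ug/ml Hoechst), then counted on 4× images. Relative viability is the nuclei count in treated wells divided by that in vehicle wells. Values are medians of duplicate plates.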

RU-SKI 43 + Phenformin = compound: CC[C@@H](C)CNCC(=O)N1CCC2=C([C@@H]1COC3=CC=CC(=C3)C)C=CS2 [RU-SKI 43] + N=C(N)NC(=N)NCCc1ccccc1 [Phenformin] (partner 250 µM)
Outline: as §1

MK-8033 + Luminespib = compound: Cn1cc(-c2cnc3ccc4ccc(CS(=O)(=O)NCc5ccccn5)cc4c(=O)c3c2)cn1 [MK-8033] + CCNC(=O)c1noc(-c2cc(C(C)C)c(O)cc2O)c1-c1ccc(CN2CCOCC2)cc1 [Luminespib] (partner 0.01 µM)
Outline: as §1

Irinotecan + Lapatinib = compound: CCc1c2c(nc3ccc(OC(=O)N4CCC(N5CCCCC5)CC4)cc13)-c1cc3c(c(=O)n1C2)COC(=O)[C@]3(O)CC [Irinotecan] + CS(=O)(=O)CCNCc1ccc(-c2ccc3ncnc(Nc4ccc(OCc5cccc(F)c5)c(Cl)c4)c3c2)o1 [Lapatinib] (partner 2 µM)
Outline: as §1

With UMC-11 the relative viability (MK-8033 + Dasatinib; first compound 0.02 µM) was 0.448, the relative viability (MK-8033 + Dasatinib; first compound 0.06325 µM) was 0.378 and the relative viability (MK-8033 + Dasatinib; first compound 0.2 µM) was 0.421. For the same cell line, the relative viability (MK-8033 + Dasatinib; first compound 2 µM) was 0.413, the relative viability (RU-SKI 43 + Phenformin; first compound 0.1 µM) was 0.349 and the relative viability (RU-SKI 43 + Phenformin; first compound 0.3162 µM) was 0.366. For the same cell line, the relative viability (RU-SKI 43 + Phenformin; first compound 1 µM) was 0.33, the relative viability (RU-SKI 43 + Phenformin; first compound 3.162 µM) was 0.32 and the relative viability (RU-SKI 43 + Phenformin; first compound 10 µM) was 0.344. It also gave a relative viability (MK-8033 + Luminespib; first compound 0.02 µM) of 1.03, a relative viability (MK-8033 + Luminespib; first compound 0.06325 µM) of 0.935 and a relative viability (MK-8033 + Luminespib; first compound 0.2 µM) of 1.03. It also gave a relative viability (MK-8033 + Luminespib; first compound 2 µM) of 0.988, a relative viability (Irinotecan + Lapatinib; first compound 0.6325 µM) of 0.354 and a relative viability (Irinotecan + Lapatinib; first compound 2 µM) of 0.452. It also gave a relative viability (Irinotecan + Lapatinib; first compound 6.325 µM) of 0.259 and a relative viability (Irinotecan + Lapatinib; first compound 20 µM) of 0.2.

Source: the supplement of paper PMC10307832
